{"source": "paper PMC11882969", "about": "(Nature Communications, 2025)", "key": {"hCB1": {"molecular_target": "hCB1 (Homo sapiens, UniProt P21554)", "sequence (P21554 whole entry)": "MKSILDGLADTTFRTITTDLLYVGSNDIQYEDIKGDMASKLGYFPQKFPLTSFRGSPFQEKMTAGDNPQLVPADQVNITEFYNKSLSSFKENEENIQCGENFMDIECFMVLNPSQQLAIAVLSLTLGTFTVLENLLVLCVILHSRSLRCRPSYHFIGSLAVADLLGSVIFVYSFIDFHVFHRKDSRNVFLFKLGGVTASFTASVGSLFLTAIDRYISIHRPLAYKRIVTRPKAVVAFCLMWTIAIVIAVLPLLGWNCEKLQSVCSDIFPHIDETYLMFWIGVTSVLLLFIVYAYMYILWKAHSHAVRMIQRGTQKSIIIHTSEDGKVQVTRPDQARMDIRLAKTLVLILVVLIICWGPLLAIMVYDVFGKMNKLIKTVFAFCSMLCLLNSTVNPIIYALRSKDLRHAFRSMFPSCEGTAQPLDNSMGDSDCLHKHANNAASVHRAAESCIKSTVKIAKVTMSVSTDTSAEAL", "assay": "Lance Ultra cAMP accumulation assay, CHO cells;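 also: human CB1R stably expressed in CHO cells, ligands co-incubated with forskolin at room temperature, read-out is lowering of forskolin-stimulated cAMP accumulation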", "format": "cell-based", "parameters": "expressed in transfected cells", "settings": "for normalised cAMP response, concentration-response (Figure2f), replicate values: log[Compound"}, "CB1 (rCB1)": {"molecular_target": "CB1 (rCB1) (Rattus norvegicus, UniProt P20272)", "sequence (P20272 whole entry)": "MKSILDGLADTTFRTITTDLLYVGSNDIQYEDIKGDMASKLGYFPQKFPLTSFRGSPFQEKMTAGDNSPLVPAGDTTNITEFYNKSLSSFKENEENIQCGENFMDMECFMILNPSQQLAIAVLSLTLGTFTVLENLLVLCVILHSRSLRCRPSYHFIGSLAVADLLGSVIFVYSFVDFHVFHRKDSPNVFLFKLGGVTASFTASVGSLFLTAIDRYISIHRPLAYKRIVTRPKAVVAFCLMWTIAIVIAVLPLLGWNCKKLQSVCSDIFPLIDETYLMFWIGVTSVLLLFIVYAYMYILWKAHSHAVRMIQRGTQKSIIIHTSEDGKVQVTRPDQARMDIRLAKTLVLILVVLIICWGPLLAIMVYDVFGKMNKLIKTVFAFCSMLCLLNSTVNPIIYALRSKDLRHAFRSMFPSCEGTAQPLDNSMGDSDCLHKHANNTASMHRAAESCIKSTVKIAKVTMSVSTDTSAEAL", "assay": "Radioligand competition binding, [3H]-CP-55,940, rat brain membranes", "settings": "for radioligand binding, competition curve point (normalized): log[drug], replicate columns"}}, "note": "“And” between values parts separate entries of the source, which are not always exact repeats. Identical values can stand only once. Like-named read-outs stand apart in the source and are kept apart here.", "data": [{"smiles": "Cc1cc(C(=O)NC(C)(c2ccco2)c2ccco2)nn1-c1cccc(C(F)(F)F)c1", "note": "[‘4936]", "values": [{"measurement": "EC50", "setting": "hCB1", "result": 4.79, "unit": "nM"}, {"measurement": "Emax", "setting": "hCB1; CHO", "result": 65, "unit": "%"}, {"measurement": "agonism, inhibition of forskolin-stimulated cAMP", "setting": "hCB1; hCB1-expressing cells, in words", "result": "agonists"}, {"measurement": "normalised cAMP response, concentration-response (Figure2f), replicate values", "setting": "hCB1; M] -5", "result": "23.9901 and 17.3183 and 31.2071"}, {"measurement": "normalised cAMP response, concentration-response (Figure2f), replicate values", "setting": "hCB1; M] -6", "result": "35.8451 and 34.6268 and 48.1963"}, {"measurement": "normalised cAMP response, concentration-response (Figure2f), replicate values", "setting": "hCB1; M] -7", "result": "34.8754 and 40.2051 and 42.4315"}, {"measurement": "normalised cAMP response, concentration-response (Figure2f), replicate values", "setting": "hCB1; M] -8", "result": "49.8775 and 50.0992 and 49.4868"}, {"measurement": "normalised cAMP response, concentration-response (Figure2f), replicate values", "setting": "hCB1; M] -9", "result": "89.3609 and 84.5102 and 106.905"}, {"measurement": "normalised cAMP response, concentration-response (Figure2f), replicate values", "setting": "hCB1; M] -10", "result": "90.3788 and 99.666 and 104.111"}, {"measurement": "normalised cAMP response, concentration-response (Figure2f), replicate values", "setting": "hCB1; M] -11", "result": "85.7953 and 85.5262 and 99.9371"}, {"measurement": "normalised cAMP response, concentration-response (Figure2f), replicate values", "setting": "hCB1; M] -12", "result": "103.02 and 108.188 and 110.316"}, {"measurement": "Ki", "setting": "CB1 (rCB1)", "result": 7, "unit": "nM"}, {"measurement": "LLE (lipophilic ligand efficiency)", "setting": "CB1 (rCB1); LLE = pIC50 − clogP", "result": 3.2}, {"measurement": "LE (ligand efficiency)", "setting": "CB1 (rCB1); from rCB1 affinity", "result": 0.37}, {"measurement": "pKi [95% CI]", "setting": "CB1 (rCB1); rCB1", "result": "8.1 [7.9 – 8.4]"}, {"measurement": "radioligand binding, competition curve point (normalized)", "setting": "CB1 (rCB1); rCB1, M = -5.643", "result": "23.3333 and 16.4729"}, {"measurement": "radioligand binding, competition curve point (normalized)", "setting": "CB1 (rCB1); rCB1, M = -6.357", "result": "15.1515 and 4.845"}, {"measurement": "radioligand binding, competition curve point (normalized)", "setting": "CB1 (rCB1); rCB1, M = -7.07", "result": "14.5455 and 12.7907"}, {"measurement": "radioligand binding, competition curve point (normalized)", "setting": "CB1 (rCB1); rCB1, M = -7.783", "result": "50 and 46.3178"}, {"measurement": "radioligand binding, competition curve point (normalized)", "setting": "CB1 (rCB1); rCB1, M = -8.496", "result": "103.182 and 83.9147"}, {"measurement": "radioligand binding, competition curve point (normalized)", "setting": "CB1 (rCB1); rCB1, M = -9.21", "result": 89.2442}, {"measurement": "radioligand binding, competition curve point (normalized)", "setting": "CB1 (rCB1); rCB1, M = -9.923", "result": "99.0909 and 86.6279"}, {"measurement": "radioligand binding, competition curve point (normalized)", "setting": "CB1 (rCB1); rCB1, M = -10.636", "result": "105.758 and 87.9845"}, {"measurement": "fold less potent than CP-55,940", "setting": "CB1 (rCB1); rCB1 binding", "result": 2.5, "unit": "fold"}, {"measurement": "Ki", "setting": "CB1 (rCB1); read-out: Ki [95% CI], rCB1, [3H]-CP-55,940", "result": 7.5, "unit": "nM"}, {"measurement": "fold improvement in CB1R affinity", "setting": "CB1 (rCB1); vs parent hit or analog without the change", "result": "approximately 6 fold"}]}]}
